Columns and labels:
[1] = target: T1, phosphorylation at Ser935 on wild type LRRK2 overexpressed in recombinant HEK-293T cells (Homo sapiens, UniProt Q5S007); experiment: pS935 LRRK2 Cell Assay (HTRF); type: cell-based; details: LRRK2 inhibition; pS935 LRRK2 in transfected HEK293T cells, 2 hours compound incubation
T1 construct: host or cells: HEK293T, transient transfection
From the text: The following protocol describes an in-vitro method for measuring phosphorylation at Ser935 on wild type LRRK2 overexpressed in recombinant HEK-293T cells. The method is based on HTRF technology, which combines Fluorescence Resonance Energy Transfer (FRET) with Time-Resolved measurement (TR). Phospho-LRRK2 (Ser935) is detected in a sandwich assay format using two different specific antibodies, one labelled with Eu^3+-Cryptate (donor) and the second with d2 (acceptor). When the fluorophores are in close proximity, excitation of the donor with a light source (flash lamp) stimulates FRET to the acceptor, which in turn fluoresces at a specific wavelength (665 nm). The fluorescence emission at 615 nm from the donor is also measured to allow ratiometric reduction of data. The specific signal is proportional to phospho-LRRK2 (Ser935).
Plasmid transient transfection: DMEM medium, FBS, DPBS, Trans-IT, OPTI-MEM reagents were allowed to warm to room temperature. HEK293T cells were cultured in DMEM+10% FBS complete medium in T150 flasks till around 80% confluency before transfection. Then cells were washed with 10 mL PBS and detached with 3 mL 0.25% typinsin. 30×10E6 HEK293T cells were seeded in DMEM+10% FBS complete medium to a 15 cm dish.
DNA, TransIT-LT1, OPTI-MEM complex were prepared: […] OPTI-MEM was added to a 15 mL cone tube, then […] plasmid was added to OPTI-MEM and mixed, followed by addition of 60 L TransIT-LT1 to the plasmid OPTI-MEM mixture and mixing. The resulting mixture was incubated for 15 minutes.
The above plasmid, DNA and OPTI-MEM mixture was added dropwise to the 15 cm dish, ensuring the drops were evenly distributed. The culture dish was gently rocked back and forth and from left to right to evenly distribute the complex. The transfected dish was incubated for 24 hours at 37° C., and 5% CO2.
Transfected HEK293T was collected in the 15 cm dish. Media was aspirated from tissue culture dish, and washed by dispensing 10 mL 1×DPBS into 15 cm dish. 1×DPBS was aspirated and 3 mL trypsin was dispensed to 15 cm dish. The dish was incubated with trypsin at room temperature for 3 min until the cells were detached. 10 mL of DMEM+10% FBS medium were added to 15 cm dish and triturated to ensure homogenous cell suspensions.
Homogenous cell suspensions were transferred to a 50 mL tube, and centrifuged for 5 minutes at 1,000 rmp/min. The supernatant was aspirated and resuspended with 20 mL complete medium. 1 mL of cell suspension was transferred for cell counting. The cell suspension was diluted to 2×10E5 cells/ml. 50 L cell suspensions were added to a 384-well plate. The plate was quick spun at 800 rpm for 1 minute, then incubate overnight at 37° C., 5% CO2.
Compound dispensing: compound was diluted (10 mM DMSO stock solution) and added to assay plate (top concentration: 10 μM, 3 fold serial dilution, 9 doses) with duplicates by Tecan liquid handler. The DMSO concentration of each well was normalized to 0.2%. Plates were quick spun at 1,000 rpm for 1 minute. Plates were incubated at 37° C., 5% CO2 for 2 hours.
1× lysis buffer solution supplemented with blocking reagent was prepared (e.g. 1 mL lysis buffer 4×+3 mL water+40 L stock blocking reagent 100×). Antibodies working solution was prepared by diluting 40-fold d2 and Cryptate antibodies with detection buffer (e.g. 1520 L detection buffer+40 L d2-antibody stock solution+[…] Cryptate-antibody stock solution).
After 2 hours incubation, cell plates were taken out from the incubator. Medium was removed by plate washer, then 16 µL of supplemented lysis buffer was added 1× to each well and incubated for 30 minutes at room temperature under shaking (800 rpm/min). 4 µL of antibodies working solution was added to each well, covered with a top seal and incubated overnight in 23° C. incubator.
HTRF signal was read (665 nm and 615 nm) on Wallac 2104 EnVision® multilabel reader. Data were analyzed by XL fit software.

[2] = target: LRRK2 wild type enzyme (Homo sapiens, UniProt Q5S007); experiment: LRRK2 biochemical assay (LanthaScreen TR-FRET, LRRKtide substrate); details: LRRK2 inhibition; 3 nM LRRK2, 400 nM LRRKtide, 25 μM ATP, 120 min, 23° C.
Sequence of LRRK2 wild type enzyme (Q5S007 whole entry): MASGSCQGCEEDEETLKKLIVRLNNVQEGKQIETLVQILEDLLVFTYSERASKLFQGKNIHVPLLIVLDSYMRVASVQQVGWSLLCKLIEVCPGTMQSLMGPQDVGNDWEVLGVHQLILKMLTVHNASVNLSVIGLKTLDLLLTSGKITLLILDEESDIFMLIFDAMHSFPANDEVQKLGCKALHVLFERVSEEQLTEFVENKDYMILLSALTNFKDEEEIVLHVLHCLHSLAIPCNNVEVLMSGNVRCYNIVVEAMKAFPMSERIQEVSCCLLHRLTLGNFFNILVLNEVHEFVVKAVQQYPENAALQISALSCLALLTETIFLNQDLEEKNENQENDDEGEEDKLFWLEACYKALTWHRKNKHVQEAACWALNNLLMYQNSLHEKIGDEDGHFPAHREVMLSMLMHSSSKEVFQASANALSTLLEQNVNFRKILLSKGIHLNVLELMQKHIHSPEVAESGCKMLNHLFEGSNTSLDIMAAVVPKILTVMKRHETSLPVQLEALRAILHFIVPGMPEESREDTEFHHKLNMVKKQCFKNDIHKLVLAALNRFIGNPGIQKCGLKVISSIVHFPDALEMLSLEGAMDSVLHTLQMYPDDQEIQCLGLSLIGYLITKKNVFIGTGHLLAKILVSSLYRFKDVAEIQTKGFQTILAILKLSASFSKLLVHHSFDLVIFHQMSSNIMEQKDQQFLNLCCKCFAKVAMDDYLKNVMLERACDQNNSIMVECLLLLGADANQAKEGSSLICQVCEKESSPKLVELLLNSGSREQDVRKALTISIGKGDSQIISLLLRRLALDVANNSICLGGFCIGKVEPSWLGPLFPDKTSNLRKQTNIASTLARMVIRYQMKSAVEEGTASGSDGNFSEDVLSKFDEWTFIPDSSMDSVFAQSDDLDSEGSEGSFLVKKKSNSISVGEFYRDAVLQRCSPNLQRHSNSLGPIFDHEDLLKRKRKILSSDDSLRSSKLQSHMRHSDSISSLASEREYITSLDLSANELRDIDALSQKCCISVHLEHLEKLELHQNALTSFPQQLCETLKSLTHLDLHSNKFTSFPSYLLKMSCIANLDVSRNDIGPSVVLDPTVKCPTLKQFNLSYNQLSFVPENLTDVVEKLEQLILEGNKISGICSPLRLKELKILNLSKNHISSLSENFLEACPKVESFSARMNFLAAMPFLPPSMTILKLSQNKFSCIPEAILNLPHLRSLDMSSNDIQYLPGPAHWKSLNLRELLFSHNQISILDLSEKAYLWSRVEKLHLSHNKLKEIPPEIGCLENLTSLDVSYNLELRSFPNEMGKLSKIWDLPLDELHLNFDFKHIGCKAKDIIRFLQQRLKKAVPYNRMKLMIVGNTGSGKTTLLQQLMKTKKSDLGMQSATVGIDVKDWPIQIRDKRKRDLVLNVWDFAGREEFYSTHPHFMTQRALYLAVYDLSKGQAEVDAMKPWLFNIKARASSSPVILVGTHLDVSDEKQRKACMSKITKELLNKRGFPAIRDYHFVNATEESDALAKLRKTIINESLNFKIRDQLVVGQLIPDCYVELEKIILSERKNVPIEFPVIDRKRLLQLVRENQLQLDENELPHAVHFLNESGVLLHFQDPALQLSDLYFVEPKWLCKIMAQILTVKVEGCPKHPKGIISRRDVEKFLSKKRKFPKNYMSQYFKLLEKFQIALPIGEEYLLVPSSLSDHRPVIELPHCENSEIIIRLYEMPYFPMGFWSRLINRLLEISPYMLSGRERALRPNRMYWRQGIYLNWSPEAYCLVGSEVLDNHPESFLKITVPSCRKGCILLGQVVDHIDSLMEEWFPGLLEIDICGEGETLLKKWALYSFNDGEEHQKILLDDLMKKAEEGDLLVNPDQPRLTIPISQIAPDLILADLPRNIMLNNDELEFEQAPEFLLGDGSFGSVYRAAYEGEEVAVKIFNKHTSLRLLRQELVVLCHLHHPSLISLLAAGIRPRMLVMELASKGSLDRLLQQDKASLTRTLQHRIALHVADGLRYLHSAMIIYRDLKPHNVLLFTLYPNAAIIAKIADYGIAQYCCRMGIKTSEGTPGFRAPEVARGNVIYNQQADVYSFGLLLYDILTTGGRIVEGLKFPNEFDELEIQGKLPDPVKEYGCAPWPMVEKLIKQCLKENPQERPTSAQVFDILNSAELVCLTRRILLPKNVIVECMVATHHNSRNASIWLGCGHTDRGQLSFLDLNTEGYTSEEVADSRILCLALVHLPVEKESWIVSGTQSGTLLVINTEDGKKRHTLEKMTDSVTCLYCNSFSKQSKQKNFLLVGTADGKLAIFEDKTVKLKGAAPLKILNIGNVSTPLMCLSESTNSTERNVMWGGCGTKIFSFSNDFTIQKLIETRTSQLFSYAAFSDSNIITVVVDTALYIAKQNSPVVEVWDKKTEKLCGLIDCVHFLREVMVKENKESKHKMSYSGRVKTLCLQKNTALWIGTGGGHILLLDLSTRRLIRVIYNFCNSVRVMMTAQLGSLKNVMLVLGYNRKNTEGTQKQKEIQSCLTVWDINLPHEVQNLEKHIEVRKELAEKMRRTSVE
Procedure: 10 mM compound solution was prepared in DMSO. An 11-point, 3-fold dilution was performed, with highest concentration at 10 μM. A 10 mM compound DMSO solution was added to Labcyte LDV plate and the compound concentration of source plate was 10 mM. The 1 st compound concentration of Inter plate (Labcyte 384 well PP plate) was 4.938×10^−1 mM which was prepared by transferring 1.5 μL of 10 mM compound from source plate to 28.9 μL DMSO. The 2nd compound concentration of Inter plate was 1.829×10^−2 mM which was prepared by transferring 60 nL of 10 mM compound from source plate to 32.7 μL DMSO. The 3rd compound concentration of Inter plate was 6.774×10^−4 mM which was prepared by transferring 2.5 nL of 10 mM compound from source plate to 36.9 μL DMSO. 100 nL of reference compound was dispensed in column 1 for low control wells and 100 nL of DMSO in column 24 for high control wells. Compounds were dispensed to column 2 to 23 of assay plate and backfilled with DMSO to a total volume of 100 nL.
A 2×LRRK2 enzyme solution (final concentration 3 nM) was prepared in assay buffer (Tris-HCl pH8.0: 50 mM, MgCl2: 5 mM, EDTA: 1 mM, Brij-35: 0.01%, 2 mM DTT). A 2× substrate solution was prepared: LRRK2 tide substrate (final concentration 400 nM) and ATP (final concentration 25 μM) in assay buffer. 5 μL 2×LRRK2 enzyme solution was dispensed to each well in assay plate by Multidrop. Assay plate was spun at 1,000 rpm for 1 min and incubated for 15 min at 23° C. 5 μL 2×ATP/LRRKtide solution was dispensed to each well in assay plate by Multidrop. Assay plate was spun at 1,000 rpm for 1 min and incubated for 120 min at 23° C.
A 2× detection solution was prepared: Tb-pERM (pLRRKtide) antibody (final concentration 0.25 nM) and EDTA (final concentration 10 mM) in TR-FRET dilution buffer. 10 μL 2× detection solution was dispensed to each well in assay plate to stop kinase reaction by Multidrop. Assay plate was spun at 1,000 rpm for 1 min and incubate for 30 min at 23° C. Assay plate was then read on Envision configured for LanthaScreen® TR-FRET.

T1 sequence (Q5S007 whole entry): as above

C[C@@H]1C[C@H](n2c(Cc3noc(N4CCC(O)CC4)n3)nc3cnc4ccc(C#N)cc4c32)CCO1 [Compound 11, 2-{[5-(4-hydroxypiperidin-1-yl)-1,2,4-oxadiazol-3-yl]methyl}-1-[(2R,4R)-2-methyloxan-4-yl]-1H-imidazo[4,5-c]quinoline-8-carbonitrile]
IC50 [1]: 270 nM | IC50 [2]: 2.26 nM

C[C@@H]1C[C@H](n2c(Cc3noc(=O)[nH]3)nc3cnc4ccc(C#N)cc4c32)CCO1 [Compound 14, 1-[(2R,4R)-2-methyloxan-4-yl]-2-[(5-oxo-4,5-dihydro-1,2,4-oxadiazol-3-yl)methyl]-1H-imidazo[4,5-c]quinoline-8-carbonitrile]
IC50 [1]: > 10000 nM | IC50 [2]: 7.84 nM

C[C@@H]1C[C@H](n2c(Cc3noc(=O)[nH]3)nc3cnc4ccc(Cl)cc4c32)CCO1 [Compound 15, 3-({8-chloro-1-[(2R,4R)-2-methyloxan-4-yl]-1H-imidazo[4,5-c]quinolin-2-yl}methyl)-4,5-dihydro-1,2,4-oxadiazol-5-one]
IC50 [1]: > 10000 nM | IC50 [2]: 3.23 nM

C[C@@H]1C[C@H](n2c(Cc3noc(N4CCN(C)C(=O)C4)n3)nc3cnc4ccc(C#N)cc4c32)CCO1 [Compound 9, 2-{[5-(4-methyl-3-oxopiperazin-1-yl)-1,2,4-oxadiazol-3-yl]methyl}-1-[(2R,4R)-2-methyloxan-4-yl]-1H-imidazo[4,5-c]quinoline-8-carbonitrile]
IC50 [1]: 616 nM | IC50 [2]: 1.69 nM

COC(=O)c1cccn(Cc2nc3cnc4ccc(C#N)cc4c3n2[C@@H]2CCO[C@H](C)C2)c1=O [Compound 19, methyl 1-({8-cyano-1-[(2R,4R)-2-methyloxan-4-yl]-1H-imidazo[4,5-c]quinolin-2-yl}methyl)-2-oxo-1,2-dihydropyridine-3-carboxylate]
IC50 [1]: 592 nM | IC50 [2]: 8.03 nM

C[C@@H]1C[C@H](n2c(Cc3noc(C4(S(C)(=O)=O)CC4)n3)nc3cnc4ccc(C#N)cc4c32)CCO1 [Compound 13, 2-{[5-(1-methanesulfonylcyclopropyl)-1,2,4-oxadiazol-3-yl]methyl}-1-[(2R,4R)-2-methyloxan-4-yl]-1H-imidazo[4,5-c]quioline-8-carbonitrile]
IC50 [1]: 23.7 nM | IC50 [2]: 0.449 nM

COC(=O)c1cn(Cc2nc3cnc4ccc(C#N)cc4c3n2[C@@H]2CCO[C@H](C)C2)ccc1=O [Compound 18, methyl 1-({8-cyano-1-[(2R,4R)-2-methyloxan-4-yl]-1H-imidazo[4,5-c]quinolin-2-yl}methyl)-4-oxo-1,4-dihydropyridine-3-carboxylate]
IC50 [1]: 7020 nM | IC50 [2]: 2.64 nM

C[C@@H]1C[C@H](n2c(Cc3ccc(S(C)(=O)=O)cn3)nc3cnc4ccc(C#N)cc4c32)CCO1 [Compound 22, 2-[(5-methanesulfonylpyridin-2-yl)methyl]-1-[(2R,4R)-2-methyloxan-4-yl]-1H-imidazo[4,5-c]quinoline-8-carbonitrile]
IC50 [2]: 0.579 nM

C[C@@H]1C[C@H](n2c(Cc3cn([C@H]4C[C@@H](S(C)(=O)=O)C4)nn3)nc3cnc4ccc(C#N)cc4c32)CCO1 [Compound 21]
IC50 [1]: 1770 nM | IC50 [2]: 1.41 nM

C[C@@H]1C[C@H](n2c(Cc3noc(N4CC(O)C4)n3)nc3cnc4ccc(C#N)cc4c32)CCO1 [Compound 1, 2-{[5-(3-hydroxyazetidin-1-yl)-1,2,4-oxadiazol-3-yl]methyl}-1-[(2R,4R)-2-methyloxan-4-yl]-1H-imidazo[4,5-c]quinoline-8-carbonitrile]
IC50 [1]: 664 nM | IC50 [2]: 0.976 nM

C[C@@H]1C[C@H](n2c(Cc3noc(N4CC(O)C4)n3)nc3cnc4ccc(Cl)cc4c32)CCO1 [Compound 3, 1-[3-({8-chloro-1-[(2R,4R)-2-methyloxan-4-yl]-1H-imidazo[4,5-c]quinolin-2-yl}methyl)-1,2,4-oxadiazol-5-yl]azetidin-3-ol]
IC50 [1]: 61.5 nM | IC50 [2]: 0.798 nM

C[C@@H]1C[C@H](n2c(Cc3ccc(NS(C)(=O)=O)nc3)nc3cnc4ccc(C#N)cc4c32)CCO1 [Compound 6, N-(5-{[8-cyano-1-(2-methyloxan-4-yl)-1H-imidazo[4,5-c]quinolin-2-yl]methyl}pyridin-2-yl)methanesulfonamide]
IC50 [1]: 4380 nM | IC50 [2]: 3.94 nM

C[C@@H]1C[C@H](n2c(Cn3cccc(C(=O)O)c3=O)nc3cnc4ccc(C#N)cc4c32)CCO1 [Compound 2, 1-({8-cyano-1-[(2R,4R)-2-methyloxan-4-yl]-1H-imidazo[4,5-c]quinolin-2-yl}methyl)-2-oxo-1,2-dihydropyridine-3-carboxylic acid]
IC50 [2]: 106 nM

C[C@@H]1CC(n2c(Cn3nccc3NS(C)(=O)=O)nc3cnc4ccc(C#N)cc4c32)CCO1 (stereo in doubt) [Compound 16, N-(1-{[8-cyano-1-(2-methyloxan-4-yl)-1H-imidazo[4,5-c]quinolin-2-yl]methyl}-1H-pyrazol-5-yl)methanesulfonamide]
IC50 [2]: 671 nM

C[C@@H]1C[C@H](n2c(Cc3noc(C4(S(C)(=O)=O)CC4)n3)nc3cnc4ccc(Cl)cc4c32)CCO1 [Compound 10, 3-({8-chloro-1-[(2R,4R)-2-methyloxan-4-yl]-1H-imidazo[4,5-c]quinolin-2-yl}methyl)-5-(1-methanesulfonylcyclopropyl)-1,2,4-oxadiazole]
IC50 [1]: 10.3 nM | IC50 [2]: 0.299 nM

C[C@@H]1C[C@H](n2c(Cc3cc(CCS(C)(=O)=O)on3)nc3cnc4ccc(C#N)cc4c32)CCO1 [Compound 20, 2-{[5-(2-methanesulfonylethyl)-1,2-oxazol-3-yl]methyl}-1-[(2R,4R)-2-methyloxan-4-yl]-1H-imidazo[4,5-c]quinoline-8-carbonitrile]
IC50 [2]: 0.596 nM

— US20250066356A1, “LRRK2 INHIBITORS” (INTERLINE THERAPEUTICS, INC., priority 2022, published 2025)
